# Patent publication US20210130790A1, “Infected Cell Cultures” (Merck Patent GmbH, priority 2017, published 2021)
# Test system: Pb-Luc (Plasmodium berghei constitutively expressing luciferase) sporozoite infection of HC-04 3D cultures
# Test: Drug activity on Pb-Luc sporozoite infection of HC-04 3D cultures (spheroids), luciferase readout
# Assay type: cell-based
# Protocol: FIG. 19—Analysis of drug activity in Pb infected-HC-04 spheroids. Dose-response curve of 3D cultures treated with ATQ. Results are expressed as percentage of infection normalized to the non-treated control. Results are represented as the mean of up to two independent experiments.
# Initially, a preliminary assay employing reporter lines of Plasmodium berghei, constitutively expressing luciferase (Pb-Luc) or GFP (Pb-GFP), was performed to optimize the range of cell-to-sporozoite ratios and mode of contact. Pb-Luc parasites enable measuring infection by luminescence readings of cell lysates following addition of the luciferin substrate. Pb-GFP parasites enable measuring infection flow cytometry analysis. Such analyses allow measuring the percentage of invaded cells (% GFP-positive cells) and the development of the parasite inside the hepatic cells (GFP intensity). […]
# HC-04 3D cultures were infected with Pb-Luc in the optimized conditions described above (cell density of 2.5×10^4 cell/well in a 1:2 ratio). The assessment of drug effect in the infection was performed by incubating the drug at a range of concentrations from 0.01 to 100 nM for 1 hour before incubation with the sporozoites and the readout was performed 48 hours after sporozoites addition, described as incubation regimen (A) in the detailed description of the invention section (FIG. 1). […]
smiles,measurement,setting,value
"O=C1C(O)=C([C@H]2CC[C@H](c3ccc(Cl)cc3)CC2)C(=O)c2ccccc21 [ATQ, Atovaquone]",IC50,"Plasmodium berghei, HC04, 2.5×10^4 cell/well, 1:2 cell-to-sporozoite ratio, drug added 1 hour before sporozoites, readout 48 hours after sporozoite addition (regimen A), read-out: half inhibitory concentration (IC50) for sporozoite infection",600 pM
same,decrease of infection,"highest concentrations tested (range 0.01 to 100 nM), readout 48 hours, normalized to non-treated control",more than 90%
